For 10 compounds, IC50 results are on record in patent US20220315591A1, “NEW EGFR INHIBITORS” (Hoffmann-La Roche Inc., priority 2019, published 2022).

This assay deals with T1, EGFR TMLRCS (BaF3-TMLRCS cell line) (Homo sapiens, UniProt P00533, C797S/L858R/T790M).
T1 construct: host or cells: Ba/F3 (BaF3-TMLRCS), puromycin-selected
T1 sequence (P00533 25-1210 T790M/C797S/L858R): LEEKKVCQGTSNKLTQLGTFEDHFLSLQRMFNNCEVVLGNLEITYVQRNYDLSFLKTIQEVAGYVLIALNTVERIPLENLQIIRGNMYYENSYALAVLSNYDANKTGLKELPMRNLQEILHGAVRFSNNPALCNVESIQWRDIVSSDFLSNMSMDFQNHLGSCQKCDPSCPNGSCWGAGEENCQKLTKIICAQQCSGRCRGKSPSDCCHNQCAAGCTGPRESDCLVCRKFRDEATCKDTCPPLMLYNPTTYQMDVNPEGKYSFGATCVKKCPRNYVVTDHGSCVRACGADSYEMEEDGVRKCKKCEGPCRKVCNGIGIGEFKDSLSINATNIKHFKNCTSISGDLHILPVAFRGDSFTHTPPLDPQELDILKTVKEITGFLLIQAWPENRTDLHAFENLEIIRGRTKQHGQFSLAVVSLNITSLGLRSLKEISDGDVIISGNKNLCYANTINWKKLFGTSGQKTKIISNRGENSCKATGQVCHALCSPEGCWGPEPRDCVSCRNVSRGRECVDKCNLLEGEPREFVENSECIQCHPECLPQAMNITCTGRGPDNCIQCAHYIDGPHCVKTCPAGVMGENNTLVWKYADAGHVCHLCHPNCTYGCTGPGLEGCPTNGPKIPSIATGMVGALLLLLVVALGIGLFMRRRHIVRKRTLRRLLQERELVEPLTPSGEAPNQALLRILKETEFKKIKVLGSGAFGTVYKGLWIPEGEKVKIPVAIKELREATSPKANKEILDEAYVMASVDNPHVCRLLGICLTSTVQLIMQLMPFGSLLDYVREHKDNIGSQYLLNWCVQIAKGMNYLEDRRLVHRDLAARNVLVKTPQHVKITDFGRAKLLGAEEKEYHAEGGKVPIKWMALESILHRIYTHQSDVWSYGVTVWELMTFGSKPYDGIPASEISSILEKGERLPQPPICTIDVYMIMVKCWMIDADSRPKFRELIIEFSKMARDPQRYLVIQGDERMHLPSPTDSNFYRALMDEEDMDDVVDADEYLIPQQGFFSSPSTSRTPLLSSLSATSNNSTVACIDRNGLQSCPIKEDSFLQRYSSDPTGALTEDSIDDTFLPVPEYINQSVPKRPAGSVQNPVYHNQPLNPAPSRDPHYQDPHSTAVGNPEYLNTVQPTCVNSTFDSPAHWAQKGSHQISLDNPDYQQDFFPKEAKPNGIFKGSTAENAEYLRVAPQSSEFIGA
Nature of the assay: HTRF Phospho EGFR TMLRCS assay (cellular). The assay is classed as cell-based. The conditions noted are these: BaF3-TMLRCS cells, 4 hours incubation. As to the method:
HTRF Phospho EGFR TMLRCS Assay (Cellular)
BaF3-TMLRCS cell line were obtained from Crownbio (San Diego, Calif., USA). Cells were maintained at 37° C., 5% CO2 in RPMI ATCC (Gibco 31870)+2 mM Glutamine+0.5 μg/ml Puromycin supplemented with 10% fetal bovine serum (FBS) (Gibco).
Cells are transferred as above to Greiner Bio-One, Nr. 784-08 micro-titerplate at 20000 cells/well in 12.5 μl of growth medium/well after the plates had been pre-filled with 12.5 nl of DMSO solutions of the to be tested compounds (in dose response) or DMSO only. After spinning the plates at 300×g for 30 seconds the cells were incubated for 4 hours at 37 C, 5% CO2, 95% humidity. The cells were lysed by adding to the compound mix 4 μl/well of the supplemented lysis buffer (Cis-bio, Phospho-EGFR HTRF kit, 64EG1PEH), followed by incubation for 30 min at room temperature with shaking (400 rpm). The plates were then frozen and stored overnight at −80 C. On the next day and after thawing the plates, 4 μl of a mixture of anti-Phospho-EGFR Cryptate and of anti-Phospho-EGFR-d2 antibody solutions prepared in the supplied detection buffer was added to each well. The lidded plates were then incubated for 4 h at room temperature before reading the fluorescence emission at 616 and 665 nm using an Envision reader (Perkin Elmer). Data was analyzed in similar fashion as above using the normalized ratio of the 665 to 616 signals multiplied by 10000.
The compound `O=C(Nc1nccs1)C(c1ncn2c1C[C@@H](F)C2)N1Cc2c(cc(C#Cc3ccc(CN4CCC(CO)CC4)cc3)cc2C(F)(F)F)C1=O` (mixture of isomers) [Example 6, (2RS)-2-[(6R)-6-Fluoro-6,7-dihydro-5H-pyrrolo[1,2-c]imidazol-1-yl]-2-[6-[2-[4-[[4-(hydroxymethyl)-1-piperidyl]methyl]phenyl]ethynyl]-1-oxo-4-(trifluoromethyl)isoindolin-2-yl]-N-thiazol-2-yl-acetamide] returned an IC50 of 1 nM.
As for `CCN1CCC(c2ccc(-c3cc4c(c(C(F)F)c3)CN(C(C(=O)Nc3nccs3)c3ncn5c3C[C@@H](F)C5)C4=O)cc2)CC1` (mixture of isomers) [Example 7, (2RS)-2-[4-(Difluoromethyl)-6-[4-(1-ethyl-4-piperidyl)phenyl]-1-oxo-isoindolin-2-yl]-2-[(6R)-6-fluoro-6,7-dihydro-5H-pyrrolo[1,2-c]imidazol-1-yl]-N-thiazol-2-yl-acetamide], the figure is 16 nM; as for `O=C(Nc1nccs1)C(c1ncn2c1C[C@@H](F)C2)N1Cc2c(cc(C#Cc3ccc(CN4CC5(CC(O)C5)C4)cc3)cc2C(F)(F)F)C1=O` (mixture of isomers) [Example 9, (2RS)-2-[(6R)-6-Fluoro-6,7-dihydro-5H-pyrrolo[1,2-c]imidazol-1-yl]-2-[6-[2-[4-[(6-hydroxy-2-azaspiro[3.3]heptan-2-yl)methyl]phenyl]ethynyl]-1-oxo-4-(trifluoromethyl)isoindolin-2-yl]-N-thiazol-2-yl-acetamide], 3 nM; as for `O=C(Nc1nccs1)C(c1ncn2c1C[C@@H](F)C2)N1Cc2c(cc(C#Cc3ccc(CN4CCC(CO)CC4)cc3)cc2C(F)F)C1=O` (mixture of isomers) [Example 10, (2RS)-2-[4-(Difluoromethyl)-6-[2-[4-[[4-(hydroxymethyl)-1-piperidyl]methyl]phenyl]ethynyl]-1-oxo-isoindolin-2-yl]-2-[(6R)-6-fluoro-6,7-dihydro-5H-pyrrolo[1,2-c]imidazol-1-yl]-N-thiazol-2-yl-acetamide], 2 nM.
As for `O=C(Nc1nccs1)C(c1ncn2c1C[C@@H](F)C2)N1Cc2c(cc(C#Cc3ccc(CN4CCCC(O)CC4)cc3)cc2C(F)(F)F)C1=O` (mixture of isomers) [Example 11, (2RS)-2-[(6R)-6-fluoro-6,7-dihydro-5H-pyrrolo[1,2-c]imidazol-1-yl]-2-[6-[2-[4-[[(4RS)-4-hydroxyazepan-1-yl]methyl]phenyl]ethynyl]-1-oxo-4-(trifluoromethyl)isoindolin-2-yl]-N-thiazol-2-yl-acetamide], the figure is 2 nM; as for `CCN1CCC(c2ccc(-c3cc4c(c(C(F)(F)F)c3)CN(C(C(=O)Nc3nccs3)c3ncn5c3CCC5)C4=O)cc2)CC1` (racemic) [Example 2, (2RS)-2-(6,7-Dihydro-5H-pyrrolo[1,2-c]imidazol-1-yl)-2-[6-[4-(1-ethyl-4-piperidyl)phenyl]-1-oxo-4-(trifluoromethyl)isoindolin-2-yl]-N-thiazol-2-yl-acetamide], 20 nM; as for `O=C(Nc1nccs1)C(c1ncn2c1CCC2)N1Cc2c(cc(C#Cc3ccc(CN4CCC(CO)CC4)cc3)cc2C(F)(F)F)C1=O` (racemic) [Example 3, (2RS)-2-(6,7-Dihydro-5H-pyrrolo[1,2-c]imidazol-1-yl)-2-[6-[2-[4-[[4-(hydroxymethyl)-1-piperidyl]methyl]phenyl]ethynyl]-1-oxo-4-(trifluoromethyl)isoindolin-2-yl]-N-thiazol-2-yl-acetamide], 1 nM.
As for `CCN1CCC(c2ccc(-c3cc4c(c(C(F)F)c3)CN(C(C(=O)Nc3nccs3)c3ncn5c3CCC5)C4=O)cc2)CC1` (racemic) [Example 4, (2RS)-2-[4-(Difluoromethyl)-6-[4-(1-ethyl-4-piperidyl)phenyl]-1-oxo-isoindolin-2-yl]-2-(6,7-dihydro-5H-pyrrolo[1,2-c]imidazol-1-yl)-N-thiazol-2-yl-acetamide], the figure is 11 nM; as for `O=C(Nc1nccs1)C(c1ncn2c1CCC2)N1Cc2c(cc(C#Cc3ccc(CN4CCC(CO)CC4)cc3)cc2C(F)F)C1=O` (racemic) [Example 5, (2RS)-2-[4-(Difluoromethyl)-6-[2-[4-[[4-(hydroxymethyl)-1-piperidyl]methyl]phenyl]ethynyl]-1-oxo-isoindolin-2-yl]-2-(6,7-dihydro-5H-pyrrolo[1,2-c]imidazol-1-yl)-N-thiazol-2-yl-acetamide], 3 nM.
`CCN1CCC(c2ccc(-c3cc4c(c(C(F)F)c3)CN(C(C(=O)Nc3nccs3)c3ncn5c3CCC5)C4=O)cc2)[C@@H](F)C1` (mixture of isomers) [Example 8, (2RS)-2-[4-(Difluoromethyl)-6-[4-1(3R,4R)-1-ethyl-3-fluoro-4-piperidyl]phenyl]-1-oxo-isoindolin-2-yl]-2-(6,7-dihydro-5H-pyrrolo[1,2-c]imidazol-1-yl)-N-thiazol-2-yl-acetamide and (2RS)-2-[4-(difluoromethyl)-6-[4-1(3S,4S)-1-ethyl-3-fluoro-4-piperidyl]phenyl]-1-oxo-isoindolin-2-yl]-2-(6,7-dihydro-5H-pyrrolo[1,2-c]imidazol-1-yl)-N-thiazol-2-yl-acetamide] came in with a half-maximal inhibitory concentration (IC50) of 18 nM.
